In patent US10017791B2, “Coryneform bacterium transformant and process for producing 4-hydroxybenzoic acid or salt thereof using the same” (GREEN PHENOL DEVELOPMENT CO., LTD., priority 2014, dated 2018):

Legend:
[1] = test system: Pseudomonas putida S12; assay: Growth inhibition test in aerobic culture (influence of 4-HBA); assay type: cell-based; conditions: 200 mM 4-HBA, LB liquid medium, 30° C., OD610
Experimental: (§1) A growth inhibition test in aerobic culture was performed to examine the influence of 4-HBA on Corynebacterium glutamicum, Escherichia coli, Pseudomonas putida, and Rhodobacter sphaeroides. Pseudomonas putida S12, which was used for the test, is reported to be a solvent-resistant strain to produce 4-HBA via tyrosine.
Pseudomonas putida S12 was applied to LB agar medium (1% polypeptone, 0.5% yeast extract, 0.5% NaCl and 1.5% agar) and was left stand in the dark at 30° C. for 15 hours.
An inoculation loop of the Pseudomonas putida S12 grown on a plate as above was applied to LB liquid medium (1% polypeptone, 0.5% yeast extract, and 0.5% NaCl), and aerobic culture was performed with shaking at 30° C. for 13 hours.
The Pseudomonas putida S12 grown in the above conditions was inoculated into 100 mL of LB liquid medium in such a way that the initial bacterial cell concentration would be OD610=0.05, 4-HBA was added at the same time in such a way that the final concentration would be 0, 100, 200, or 300 mM, and aerobic culture was performed with shaking at 30° C. The growth of the bacterial cells was determined by absorbance measurement at OD610.

[2] = test system: Rhodobacter sphaeroides; assay: as above; assay type: cell-based; conditions: LB liquid medium, 30° C., OD610
Experimental: as §1
Rhodobacter sphaeroides was applied to LB agar medium (1% polypeptone, 0.5% yeast extract, 0.5% NaCl and 1.5% agar) and was left stand in the dark at 30° C. for 20 hours.
An inoculation loop of the Rhodobacter sphaeroides grown on a plate as above was applied to LB liquid medium (1% polypeptone, 0.5% yeast extract, and 0.5% NaCl), and aerobic culture was performed with shaking at 30° C. for 13 hours.
The Rhodobacter sphaeroides grown in the above conditions was inoculated into 100 mL of LB liquid medium in such a way that the initial bacterial cell concentration would be OD=0.1, 4-HBA was added at the same time in such a way that the final concentration would be 0, 100, or 200 mM, and aerobic culture was performed with shaking at 30° C. The growth of the bacterial cells was determined by absorbance measurement at OD610.

[3] = target: chorismate-pyruvate lyase of Cupriavidus taiwanensis (Cupriavidus taiwanensis, UniProt B3R6T5); assay: Product inhibition of chorismate-pyruvate lyase activity by 4-HBA (IC50); assay type: biochemical
Chain of chorismate-pyruvate lyase of Cupriavidus taiwanensis (B3R6T5 entry or part of it): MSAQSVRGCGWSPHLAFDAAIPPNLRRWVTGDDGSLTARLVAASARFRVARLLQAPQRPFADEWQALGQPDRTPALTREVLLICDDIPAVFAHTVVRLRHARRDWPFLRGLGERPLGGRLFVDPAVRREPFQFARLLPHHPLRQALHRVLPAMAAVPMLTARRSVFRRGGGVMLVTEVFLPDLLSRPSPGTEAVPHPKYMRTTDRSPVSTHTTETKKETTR
Experimental: (§2) Each kind of the bacterial cells cultured and proliferated as above was collected by centrifugation (8,000 rpm, 4° C., 10 minutes). After disrupting the bacterial cells by sonication, centrifugation (15,000 rpm, 4° C., 20 minutes) was performed. Using the supernatant of the cell lysate as a crude enzyme liquid, chorismate-pyruvate lyase activity was determined by the following method. The crude enzyme liquid, 50 mM Tris-HCl (pH 7.5), 0.5 mM of chorismate Ba salt, 0.2 mM of NADH, 0.2 M of NaCl and 5 units of lactate dehydrogenase were mixed, the reaction was allowed to proceed at 33° C., and the decrease in absorbance of NADH at 340 nm was monitored to analyze the initial rate of the reaction. From the initial rate of the reaction and the protein concentration, the specific activity was calculated (the amount of the enzyme that produces 1 μmol of 4-HBA per minute was defined as 1 unit). (After the reaction mixture was filtered, the resulting 4-HBA was subjected to HPLC for direct detection of the peak of 4-HBA (Cosmosil C18 ARII made by Nacalai Tesque, mobile phase: 20% methanol and 0.07% perchloric acid) to separately confirm that the two assay methods were similar in quantitative performance.)
(§3) Using the supernatants of the cell lysates of the strains of HBA-1 to HBA-21 prepared in Example 2, inhibition by the product, 4-HBA, was examined.

[4] = target: T1, chorismate-pyruvate lyase of Cronobacter sakazakii (Cronobacter sakazakii, UniProt A7MPN9); assay: as above; assay type: biochemical; conditions: cell lysate supernatant of strain HBA12
T1 construct: 5′-[…]-3′
T1 sequence (A7MPN9 whole entry, looked up): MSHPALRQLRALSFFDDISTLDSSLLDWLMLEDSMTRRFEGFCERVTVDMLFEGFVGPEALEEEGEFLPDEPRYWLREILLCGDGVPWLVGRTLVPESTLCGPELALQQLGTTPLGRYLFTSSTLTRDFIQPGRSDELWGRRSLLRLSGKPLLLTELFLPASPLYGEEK
Experimental: as §2, §3

[5] = target: chorismate-pyruvate lyase of Providencia sneebia (Providencia sneebia, UniProt K8VZZ4); assay: as above; assay type: biochemical; conditions: cell lysate supernatant of strain HBA4
Chain of chorismate-pyruvate lyase of Providencia sneebia (K8VZZ4 1-168): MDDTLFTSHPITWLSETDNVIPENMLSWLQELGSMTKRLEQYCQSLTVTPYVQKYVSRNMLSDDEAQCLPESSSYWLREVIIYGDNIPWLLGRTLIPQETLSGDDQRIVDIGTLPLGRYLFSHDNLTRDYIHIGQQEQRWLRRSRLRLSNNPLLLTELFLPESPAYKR
Experimental: as §2, §3

[6] = target: chorismate-pyruvate lyase of Morganella morganii (Morganella morganii, UniProt M1SIE1); assay: as above; assay type: biochemical; conditions: cell lysate supernatant of strain HBA18
Chain of chorismate-pyruvate lyase of Morganella morganii (M1SIE1 entry or part of it): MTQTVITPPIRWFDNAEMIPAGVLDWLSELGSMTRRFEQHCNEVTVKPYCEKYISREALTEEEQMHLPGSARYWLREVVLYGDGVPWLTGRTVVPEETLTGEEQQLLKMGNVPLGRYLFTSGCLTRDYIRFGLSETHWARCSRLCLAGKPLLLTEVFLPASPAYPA
Experimental: as §2, §3

[7] = target: chorismate-pyruvate lyase of Azotobacter vinelandii (Azotobacter vinelandii, UniProt C1DK46); assay: as above; assay type: biochemical; conditions: cell lysate supernatant of strain HBA19
Chain of chorismate-pyruvate lyase of Azotobacter vinelandii (C1DK46 1-183): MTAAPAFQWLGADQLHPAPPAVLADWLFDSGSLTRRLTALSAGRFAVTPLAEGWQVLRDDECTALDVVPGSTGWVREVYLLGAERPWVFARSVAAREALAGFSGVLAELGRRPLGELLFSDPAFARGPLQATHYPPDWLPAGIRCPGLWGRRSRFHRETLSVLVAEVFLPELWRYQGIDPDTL
Experimental: as §2, §3

[8] = target: chorismate-pyruvate lyase of Citrobacter koseri (Citrobacter koseri, UniProt A8AN89); assay: as above; assay type: biochemical; conditions: cell lysate supernatant of strain HBA14
Chain of chorismate-pyruvate lyase of Citrobacter koseri (A8AN89 whole entry, looked up): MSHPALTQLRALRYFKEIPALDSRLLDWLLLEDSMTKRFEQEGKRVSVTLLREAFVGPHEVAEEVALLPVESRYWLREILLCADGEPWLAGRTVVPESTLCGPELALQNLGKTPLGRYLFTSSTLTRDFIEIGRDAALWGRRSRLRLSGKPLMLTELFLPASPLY
Experimental: as §2, §3

[9] = target: chorismate-pyruvate lyase of Pseudoalteromonas piscicida (Pseudoalteromonas piscicida, UniProt A0ABN5CDX6, M1V); assay: as above; assay type: biochemical; conditions: cell lysate supernatant of strain HBA10
Chain of chorismate-pyruvate lyase of Pseudoalteromonas piscicida (A0ABN5CDX6 1-160, stated change not applied): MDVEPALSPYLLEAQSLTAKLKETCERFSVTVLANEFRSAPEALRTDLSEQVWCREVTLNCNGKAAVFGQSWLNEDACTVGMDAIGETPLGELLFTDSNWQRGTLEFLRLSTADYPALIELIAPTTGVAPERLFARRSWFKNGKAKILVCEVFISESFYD
Experimental: as §2, §3

[10] = target: chorismate-pyruvate lyase of Pseudoalteromonas haloplanktis (Pseudoalteromonas haloplanktis, UniProt A0A9W4VR20, L6V); assay: as above; assay type: biochemical
Chain of chorismate-pyruvate lyase of Pseudoalteromonas haloplanktis (A0A9W4VR20 entry or part of it L6V): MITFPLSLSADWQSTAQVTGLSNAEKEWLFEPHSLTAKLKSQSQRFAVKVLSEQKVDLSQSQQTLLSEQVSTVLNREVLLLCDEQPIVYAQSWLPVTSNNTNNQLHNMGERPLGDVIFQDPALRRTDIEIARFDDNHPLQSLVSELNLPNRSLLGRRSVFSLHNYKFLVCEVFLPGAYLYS
Experimental: as §2, §3

[11] = target: chorismate-pyruvate lyase of Providencia rustigianii (Providencia rustigianii, UniProt D1P752); assay: as above; assay type: biochemical; conditions: cell lysate supernatant of strain HBA2
Chain of chorismate-pyruvate lyase of Providencia rustigianii (D1P752 1-167): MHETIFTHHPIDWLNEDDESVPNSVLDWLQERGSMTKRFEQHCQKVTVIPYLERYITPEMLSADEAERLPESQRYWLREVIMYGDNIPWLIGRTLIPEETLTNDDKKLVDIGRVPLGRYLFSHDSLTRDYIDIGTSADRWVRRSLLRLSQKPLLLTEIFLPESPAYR
Experimental: as §2, §3

[12] = target: chorismate-pyruvate lyase of Enterobacter cloacae (Enterobacter cloacae, UniProt A0A0H3CH24); assay: as above; assay type: biochemical; conditions: cell lysate supernatant of strain HBA16
Chain of chorismate-pyruvate lyase of Enterobacter cloacae (A0A0H3CH24 entry or part of it): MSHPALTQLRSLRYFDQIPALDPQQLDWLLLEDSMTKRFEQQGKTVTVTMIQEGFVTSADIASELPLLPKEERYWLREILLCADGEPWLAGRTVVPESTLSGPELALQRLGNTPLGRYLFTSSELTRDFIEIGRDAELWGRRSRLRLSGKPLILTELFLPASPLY
Experimental: as §2, §3

[13] = target: chorismate-pyruvate lyase of Providencia stuartii (Providencia stuartii, UniProt A0A1S1HSD5); assay: as above; assay type: biochemical; conditions: cell lysate supernatant of strain HBA3
Chain of chorismate-pyruvate lyase of Providencia stuartii (A0A1S1HSD5 entry or part of it): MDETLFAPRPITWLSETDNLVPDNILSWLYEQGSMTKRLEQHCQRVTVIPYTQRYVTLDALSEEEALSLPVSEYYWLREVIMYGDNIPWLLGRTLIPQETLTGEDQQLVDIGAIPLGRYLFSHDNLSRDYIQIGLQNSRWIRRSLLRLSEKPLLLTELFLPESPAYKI
Experimental: as §2, §3

[14] = target: chorismate-pyruvate lyase of Shewanella putrefaciens (Shewanella putrefaciens, UniProt A0ABX8XB71); assay: as above; assay type: biochemical; conditions: cell lysate supernatant of strain HBA20
Chain of chorismate-pyruvate lyase of Shewanella putrefaciens (A0ABX8XB71 entry or part of it): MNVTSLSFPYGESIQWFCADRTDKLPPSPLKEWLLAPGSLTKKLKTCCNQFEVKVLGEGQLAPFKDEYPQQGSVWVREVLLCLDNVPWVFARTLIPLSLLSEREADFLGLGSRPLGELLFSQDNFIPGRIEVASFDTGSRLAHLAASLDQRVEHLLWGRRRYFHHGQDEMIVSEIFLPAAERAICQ
Experimental: as §2, §3

[15] = target: chorismate-pyruvate lyase of Escherichia fergusonii (Escherichia fergusonii, UniProt B7LL11); assay: as above; assay type: biochemical; conditions: cell lysate supernatant of strain HBA9
Chain of chorismate-pyruvate lyase of Escherichia fergusonii (B7LL11 entry or part of it): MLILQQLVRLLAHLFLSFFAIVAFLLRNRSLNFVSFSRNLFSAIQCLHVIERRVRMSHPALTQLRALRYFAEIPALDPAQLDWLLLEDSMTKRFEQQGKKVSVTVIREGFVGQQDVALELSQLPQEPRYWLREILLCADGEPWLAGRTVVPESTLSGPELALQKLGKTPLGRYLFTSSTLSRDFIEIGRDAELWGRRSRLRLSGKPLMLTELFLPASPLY
Experimental: as §2, §3

[16] = target: chorismate-pyruvate lyase of Providencia alcalifaciens (Providencia alcalifaciens, UniProt B6XE56); assay: as above; assay type: biochemical; conditions: cell lysate supernatant of strain HBA6
Chain of chorismate-pyruvate lyase of Providencia alcalifaciens (B6XE56 1-167): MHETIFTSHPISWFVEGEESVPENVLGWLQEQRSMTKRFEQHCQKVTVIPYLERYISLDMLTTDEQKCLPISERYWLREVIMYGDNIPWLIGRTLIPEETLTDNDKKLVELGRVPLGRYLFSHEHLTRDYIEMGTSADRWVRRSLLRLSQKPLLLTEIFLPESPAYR
Experimental: as §2, §3

[17] = target: chorismate-pyruvate lyase of Enterobacter aerogenes (Klebsiella aerogenes, UniProt A0A0H3FPH2); assay: as above; assay type: biochemical; conditions: cell lysate supernatant of strain HBA15
Chain of chorismate-pyruvate lyase of Enterobacter aerogenes (A0A0H3FPH2 entry or part of it): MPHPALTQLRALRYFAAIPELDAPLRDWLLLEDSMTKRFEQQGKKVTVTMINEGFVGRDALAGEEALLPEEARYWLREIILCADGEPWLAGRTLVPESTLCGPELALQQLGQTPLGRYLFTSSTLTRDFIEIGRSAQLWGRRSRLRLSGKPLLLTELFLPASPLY
Experimental: as §2, §3

[18] = target: T2, chorismate-pyruvate lyase of Escherichia coli (Escherichia coli, UniProt P26602); assay: as above; assay type: biochemical; conditions: cell lysate supernatant of strain HBA8
T2 construct: made in house; host or cells: Corynebacterium glutamicum R (crude cell-lysate supernatant)
T2 sequence (P26602 whole entry): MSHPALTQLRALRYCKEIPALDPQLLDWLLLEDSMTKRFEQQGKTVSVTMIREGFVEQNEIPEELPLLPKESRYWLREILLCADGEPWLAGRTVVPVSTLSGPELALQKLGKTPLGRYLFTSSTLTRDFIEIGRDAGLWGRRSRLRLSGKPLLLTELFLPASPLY
Experimental: as §2, §3

[19] = target: chorismate-pyruvate lyase of Pantoea ananatis (Pantoea ananatis, UniProt A0ACE3JNM4); assay: as above; assay type: biochemical; conditions: cell lysate supernatant of strain HBA1
Chain of chorismate-pyruvate lyase of Pantoea ananatis (A0ACE3JNM4 1-170): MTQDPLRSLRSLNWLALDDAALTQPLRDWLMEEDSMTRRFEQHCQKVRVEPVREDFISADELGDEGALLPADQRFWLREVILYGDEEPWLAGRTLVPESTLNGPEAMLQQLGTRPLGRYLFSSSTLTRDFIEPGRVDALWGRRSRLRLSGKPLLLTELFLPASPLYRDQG
Experimental: as §2, §3

[20] = target: chorismate-pyruvate lyase of Providencia burhodogranariea (Providencia burhodogranariea, UniProt K8VY45); assay: as above; assay type: biochemical; conditions: cell lysate supernatant of strain HBA7
Chain of chorismate-pyruvate lyase of Providencia burhodogranariea (K8VY45 entry or part of it): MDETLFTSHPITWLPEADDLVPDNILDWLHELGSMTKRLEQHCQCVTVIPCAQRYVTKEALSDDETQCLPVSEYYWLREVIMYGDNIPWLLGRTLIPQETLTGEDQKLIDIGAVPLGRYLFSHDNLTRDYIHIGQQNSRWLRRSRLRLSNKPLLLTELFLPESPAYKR
Experimental: as §2, §3

[21] = target: chorismate-pyruvate lyase of Pseudomonas putida (Pseudomonas putida, UniProt Q88C66); assay: as above; assay type: biochemical; conditions: cell lysate supernatant of strain HBA17
Chain of chorismate-pyruvate lyase of Pseudomonas putida (Q88C66 whole entry): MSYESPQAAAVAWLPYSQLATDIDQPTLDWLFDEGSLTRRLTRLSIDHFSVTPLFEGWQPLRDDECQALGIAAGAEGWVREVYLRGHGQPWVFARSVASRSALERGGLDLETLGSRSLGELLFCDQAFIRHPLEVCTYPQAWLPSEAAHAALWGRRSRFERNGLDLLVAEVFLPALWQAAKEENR
Experimental: as §2, §3

[22] = test system: Escherichia coli JM109; assay: Growth inhibition test in aerobic culture (influence of 4-HBA); assay type: cell-based; conditions: LB liquid medium, 37° C., OD610
Experimental: as §1
Escherichia coli JM109 was applied to LB agar medium (1% polypeptone, 0.5% yeast extract, 0.5% NaCl and 1.5% agar) and was left stand in the dark at 37° C. for 15 hours.
An inoculation loop of the Escherichia coli JM109 grown on a plate as above was applied to LB liquid medium (1% polypeptone, 0.5% yeast extract, and 0.5% NaCl), and aerobic culture was performed with shaking at 37° C. for 13 hours.
The Escherichia coli JM109 grown in the above conditions was inoculated into 100 mL of LB liquid medium in such a way that the initial bacterial cell concentration would be OD=0.05, 4-HBA was added at the same time in such a way that the final concentration would be 0, 100, or 200 mM, and aerobic culture was performed with shaking at 37° C. The growth of the bacterial cells was determined by absorbance measurement at OD610.

[23] = test system: Corynebacterium glutamicum R; assay: as above; assay type: cell-based; conditions: for Growth of Corynebacterium glutamicum: aerobic, A liquid medium, 33° C., OD610
Experimental: as §1
Corynebacterium glutamicum was applied to A agar medium (2 g of (NH2)2CO, 7 g of (NH4)2SO4, 0.5 g of KH2PO4, 0.5 g of K2HPO4, 0.5 g of MgSO4.7H2O, 1 mL of 0.06% (w/v) Fe2SO4.7H2O+0.042% (w/v) MnSO4.2H2O, 1 mL of 0.02% (w/v) biotin solution, 2 mL of 0.01% (w/v) thiamin solution, 2 g of yeast extract, 7 g of vitamin assay casamino acid, 40 g of glucose, and 15 g of agar were suspended in 1 L of distilled water) and was left stand in the dark at 33° C. for 15 hours.
An inoculation loop of Corynebacterium glutamicum R strain grown on a plate as above was inoculated into a test tube containing 10 mL of A liquid medium (2 g of (NH2)2CO, 7 g of (NH4)2SO4, 0.5 g of KH2PO4, 0.5 g of K2HPO4, 0.5 g of MgSO4.7H2O, 1 mL of 0.06% (w/v) Fe2SO4.7H2O+0.042% (w/v) MnSO4.2H2O, 1 mL of 0.02% (w/v) biotin solution, 2 mL of 0.01% (w/v) thiamin solution, 2 g of yeast extract, 7 g of vitamin assay casamino acid, and 40 g of glucose were suspended in 1 L of distilled water) and was aerobically cultured with shaking at 33° C. for 15 hours.
The Corynebacterium glutamicum R strain grown in the above conditions was inoculated into 10 mL of A liquid medium in such a way that the initial bacterial cell concentration would be OD610=0.05, 4-HBA was added at the same time in such a way that the final concentration would be 0, 100, 200, 250, or 300 mM, and aerobic culture was performed with shaking at 33° C. The growth of the bacterial cells was determined by absorbance measurement at OD610.

With `O=C(O)c1ccc(O)cc1` [Strain 4-HBA, 4-hydroxybenzoic acid] the “Growth of Pseudomonas putida S12” value [1] was “completely inhibited”, the “Growth of Rhodobacter sphaeroides” value ([2]; 100 mM 4-HBA) was “completely inhibited” and the “Growth of Rhodobacter sphaeroides” value ([2]; 200 mM 4-HBA) was “completely inhibited”. For the same compound, the IC50 [3] was 149 µM, the IC50 [4] was 76 µM and the IC50 [5] was 338 µM. For the same compound, the IC50 [6] was 61 µM, the IC50 [7] was 69 µM and the IC50 [8] was 83 µM. It also gave an IC50 [9] of 73 µM, an IC50 [10] of 78 µM and an IC50 [11] of 364 µM. For the same compound, the IC50 [12] was 105 µM, the IC50 [13] was 368 µM and the IC50 [14] was 130 µM. For the same compound, the IC50 [15] was 79 µM, the IC50 [16] was 301 µM and the IC50 [17] was 73 µM. It also gave an IC50 [18] of 67 µM, an IC50 [19] of 69 µM and an IC50 [20] of 401 µM. The IC50 [21] was 68 µM, the “Growth of Escherichia coli” value ([22]; 100 mM 4-HBA) was “significantly affected” and the “Growth of Escherichia coli” value ([22]; 200 mM 4-HBA) was “completely inhibited”. The “Growth of Corynebacterium glutamicum” value ([23]; 200 mM 4-HBA) was “able to grow”, the “Growth, % of the OD610 of wild strain” value ([23]; 250 mM 4-HBA, 28 hours after the start of the culture, same extent as in the presence of 200 mM 4-HBA, data not shown) was “about 65%” and the “Growth of Corynebacterium glutamicum” value ([23]; 250 mM 4-HBA) was “able to grow”.
